Test results as given in patent EP1357114A1, “Substituted pyrimidin-2,4(1H,3H)-diones as inhibitors of Matrix Metalloproteinases (MMP)” (IBFB GmbH Privates Institut für biomedizinische Forschung …, priority 2002, dated 2003).

Key:
Assay in all cases: Quantitative fluorescence assay for matrix metalloproteinases (cleavage of Mca-Pro-Leu-Gly-Leu-Dpa-Ala-Arg-NH2)
Type in all cases: biochemical
MMP-9 = target: T1, MMP-9 (Homo sapiens, UniProt P14780)
T1 construct: Das latente Enzym wird durch 30 - 60 min; Inkubation bei 37°C mit 1/100 Vol. Trypsin (10 mg/ml) aktiviert; from tissue; host or cells: human buffy coat (blood leukocytes)
Description: Native MMP-9 wurde reproduzierbar und in guter Ausbeute und Reinheit aus humanem Buffy Coat gewonnen. Hierzu wird Buffy Coat mit 10% (v/v) Triton X-100 auf eine Endkonzentration von 0,4% gebracht, 30 min. auf Eis geschüttelt und dann 1 Vol. 2-fach Bindungspuffer (40 mM Tris-HCI pH 7,5, 10 mM CaCl2, 1 M NaCI, 0,2% (v/v) Triton X-100) hinzugefügt und weitere 30 min. auf Eis geschüttelt. Die Lösung wird 15 min. bei 16 000 Upm an einem SS-34 Rotor bei 4°C abzentrifugiert und über Glaswolle filtriert. Das Filtrat wird mit Gelatine-Agarose, welche mit Bindungspuffer äquilibriert wurde, gebatcht und 1 Std. auf Eis geschüttelt. Die beladene Gelatine-Agarose wird in eine Säule überführt und mit mindestens 10 Vol. Bindungspuffer proteinfrei gespült. Die Elution der gebundenen MMP-9 erfolgt mit 2 Gelvolumen Bindungspuffer plus 5% (v/v) DMSO. Das Eluat kann zum Puffer-Austausch und gleichzeitiger Abtrennung geringer Verunreinigungen an MMP-2 über eine Gelfiltration an Sephadex G-75 aufgetrennt werden. Hierzu wird der Puffer I (20 mM Tris-HCI pH 7,5, 5 mM CaCl2, 100 mM NaCI, 0,1% (v/v) Triton X-100) verwendet. Das so gewonnene Eluat enthällt MMP-9 in den drei bekannten Zustandsformen: Monomer, Homodimer, Heterodimer. Die Reinheit des Enzyms beträgt ca. 90%, wobei die restlichen Fremdproteine Fibronektin und äußerst geringe Mengen an TIMP's sind. Das latente Enzym wird durch 30 - 60 min. Inkubation bei 37°C mit 1/100 Vol. Trypsin (10 mg/ml) aktiviert. Trypsin wird durch Zugabe von 1 mM PMSF oder mit einem spezifischen Inhibitor (TKI) gehemmt.
(§1) Durch enzymatische Spaltung des synthetischen Substrates Mca-Pro-Leu-Gly-Leu-Dpa-Ala-Arg-NH2 durch die jeweilige Kollagenase, wird die fluoreszente Gruppe Mca ((7-Methoxycoumarin-4-yl)acetyl) vom internen Quencher Dpa ((N-3-(2,4-dinitrophenyl)-L-2,3-diaminopropienyl) getrennt. Dabei erfolgt eine starke Zunahme der Fluoreszenz im Messansatz, die am Fluorimeter quantifiziert werden kann (λex 328 nm, λem 393 nm) und innerhalb der ersten Minuten linear verläuft. Eine gewisse Spezifität des Tests für Matrix-Metalloproteinasen ergibt sich einerseits aus der Aminosäuresequenz -Pro-Leu-Gly-Leu- im Substrat und andererseits durch die gewählten Inkubationsbedingungen. Matrix-Metalloproteinasen spalten das Substrat an der Bindung Gly-Leu. Gemessen wird die proteolytische Restaktivität vorinkubierter Ansätze von Enzym und Inhibitor, wobei die Substrat- und Enzymkonzentration konstant gehalten und die Inhibitorkonzentration variiert wurde. Es wurden für jeden getesteten Inhibitor drei Messreihen mit unterschiedlicher Substratkonzentration aufgenommen. Aus der zeitabhängigen Fluoreszenzzunahme wird die Enzymaktivität in Fluoreszenzeinheiten pro min berechnet. Die Bestimmung der Ki-Werte erfolgte graphisch nach der Methode von DIXON (1953) durch Auftragung der reziproken Reaktionsgeschwindigkeit 1/v (y-Achse) gegen Inhibitorkonzentration (x-Achse).
(§2) 1984 µl Messpuffer (100mM Tris-HCI pH 7,5, 100 mM NaCI, 10 mM CaCl2, 0,05% Brij 35 bzw. 50 mM MES-NaOH, pH 6.0, 10 mM CaCl2, 100 mM NaCI, 0.05% Brij 35 im Fall der KaDo MMP-3) 2 µl Inhibitor, gelöst in DMSO, bzw. DMSO allein (nichtinhibierender Ansatz) 4 µl Enzym • 5 min. Vorinkubation des Enzym-Inhibitor-Gemischs bei Raumtemperatur unter Rühren • Start der Reaktion mit 10 µl Substrat gelöst in DMSO • Aufzeichnung der zeitabhängigen Fluoreszenzzunahme über 2 - 10 min.

[1] = target: T2, katalytische Domäne der MMP-3 (Homo sapiens, UniProt P08254); conditions: for Ki: Dixon plot
T2 construct: Die katalytische Domäne der humanen MMP-3 wurde nach den Angaben in folgender Publikation kloniert; made in house
Description: Die katalytische Domäne der humanen MMP-3 wurde nach den Angaben in folgender Publikation kloniert: Ye Q-Z, Johnson LL, Hupe DJ, Baragi V: Purification and Characterization of the Human Stromelysin Catalytic Domain Expressed in Escherichia coli. Biochemistry (1992), 31, 11231-11235). Nach Rückfaltung des Enzyms und Gelfiltration an Sephadex G-50 (Laufpuffer 100 mM Tris-HCI pH 7,5, 10 mM CaCl2, 100 mM NaCI, 0,05% Brij 35) erhielten wir ein zu 95% reines Präparat.
as §1, §2

[2] = target: T3, katalytische Domäne der MT1-MMP (Homo sapiens, UniProt P50281)
T3 construct: Die katalytische Domäne der humanen MT1-MMP wurde nach den Angaben in folgender Publikation kloniert; made in house
Description: Die katalytische Domäne der humanen MT1-MMP wurde nach den Angaben in folgender Publikation kloniert: Lichte A, Kolkenbrock H, Tschesche H: The recombinant catalytic domain of membrane-type matrix metalloproteinase-1 (MT1-MMP) induces activation of progelatinase A and progelatinase A complexed with TIMP-2. FEBS letters (1996), 397, 277-282.
Nach Rückfaltung des Enyzms, Autoprozessierung zur aktiven Form und Gelfiltration an Sephadex G-50 (Laufpuffer 20 mM Tris-HCI pH 7,5, 5 mM CaCl2, 100 mM NaCI, 0,1 mM ZnCl2, 0,02% (w/v) Natriumazid) erhielten wir ein zu 95% reines Präparat.
as §1, §2

[3] = result in words, concentration not given

T1 sequence (P14780 107-707 limits assumed): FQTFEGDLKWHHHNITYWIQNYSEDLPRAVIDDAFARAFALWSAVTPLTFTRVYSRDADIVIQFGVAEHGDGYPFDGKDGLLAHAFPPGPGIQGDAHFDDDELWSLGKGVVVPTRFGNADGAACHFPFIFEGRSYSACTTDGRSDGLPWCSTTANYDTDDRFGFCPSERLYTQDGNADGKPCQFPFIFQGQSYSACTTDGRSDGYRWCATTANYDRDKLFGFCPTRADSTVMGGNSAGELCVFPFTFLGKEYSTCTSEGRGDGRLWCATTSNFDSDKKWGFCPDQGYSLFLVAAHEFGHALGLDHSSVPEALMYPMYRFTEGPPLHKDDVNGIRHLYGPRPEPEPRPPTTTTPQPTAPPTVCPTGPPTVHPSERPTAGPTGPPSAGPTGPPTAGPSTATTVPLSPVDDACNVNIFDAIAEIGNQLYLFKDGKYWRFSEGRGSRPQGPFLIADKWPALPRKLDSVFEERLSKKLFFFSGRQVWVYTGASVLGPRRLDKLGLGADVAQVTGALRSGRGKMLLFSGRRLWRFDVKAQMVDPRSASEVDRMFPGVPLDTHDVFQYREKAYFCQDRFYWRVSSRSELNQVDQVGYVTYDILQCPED
T2 sequence (P08254 100-272 limits assumed): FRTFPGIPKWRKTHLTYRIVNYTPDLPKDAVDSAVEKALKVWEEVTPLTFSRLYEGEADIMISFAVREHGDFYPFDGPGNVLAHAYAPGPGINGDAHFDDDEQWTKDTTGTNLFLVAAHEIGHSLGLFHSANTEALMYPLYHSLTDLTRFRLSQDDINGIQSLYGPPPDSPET

Row | Compound | MMP-9 Hemmung (MMP-9; bei 10 µM) [% Hemmung bei 10 µM] | MMP-3 Hemmung ([1]; bei 10 µM) [% Hemmung bei 10 µM] | MT1-MMP Hemmung ([2]; bei 10 µM) [% Hemmung bei 10 µM] | other results
1 | O=c1[nH]c2ccccc2c(=O)n1CC(S)CS (racemic) [Beispiel 1, (R,S)-3-(2,3-Dimercaptopropyl)chinazolin-2,4-(1H,3H)dion] | 70 | 70 | 40 | –
2 | O=c1[nH]c2cc(Cl)ccc2c(=O)n1CC(S)CS (racemic) [Beispiel 3, (R,S)-7-Chlor-3-(2,3-dimercaptopropyl)chinazolin-2,4-(1H,3H)dion] | 83 | 97 | 73 | –
3 | O=c1[nH]c2ccc(Cl)cc2c(=O)n1CC(S)CS (racemic) [Beispiel 4, (R,S)-6-Chlor-3-(2,3-dimercaptopropyl)chinazolin-2,4-(1H,3H)dion] | 50 | 15 | 60 | –
4 | Cc1cccc2[nH]c(=O)n(CC(S)CS)c(=O)c12 (racemic) [Beispiel 5, (R,S)-3-(2,3-Dimercaptopropyl)-5-methyl-chinazolin-2,4-(1H,3H)dion] | 70 | 90 | 80 | –
5 | COc1cc2[nH]c(=O)n(CC(S)CS)c(=O)c2cc1OC (racemic) [Beispiel 7, (R,S)-3-(2,3-Dimercaptopropyl)-6,7-dimethoxy-chinazolin-2,4-(1H,3H)dion] | – | – | – | MMP-9 Hemmung (MMP-9; bei 1 µM): 20% Hemmung bei 1 µM; Ki [1]: 1000 nM; MT1-MMP Hemmung [2, 3]: keine Hemmung
6 | O=C(NCc1ccccc1)c1ccc2c(=O)n(CC(S)CS)c(=O)[nH]c2c1 (racemic) [Beispiel 8, (R,S)-N-Benzyl-3-(2,3-dimercaptopropyl)-2,4-dioxo-1,2,3,4-tetrahydrochinazolin-7-carboxamide] | – | – | – | MMP-9 Hemmung (MMP-9; bei 5 µM): 30% Hemmung bei 5 µM; MMP-3 Hemmung ([1]; bei 5 µM): 30% Hemmung bei 5 µM; MT1-MMP Hemmung ([2]; bei 5 µM): 30% Hemmung bei 5 µM
7 | O=c1[nH]c2ccsc2c(=O)n1CC(S)CS (racemic) [Beispiel 9, (R,S)-3-(2,3-Dimercaptopropyl)thieno[3,2-d]pyrimidin-2,4(1H,3H)-dion] | – | – | – | MMP-9 Hemmung (MMP-9; bei 2,5 µM): 50% Hemmung bei 2,5 µM; Ki [1]: 250 nM; MT1-MMP Hemmung ([2]; bei 3 µM): 50% Hemmung bei 3 µM
8 | O=c1[nH]c2sc3c(c2c(=O)n1CC(S)CS)CCCC3 (racemic) [Beispiel 10, (R,S)-3-(2,3-Dimercaptopropyl)-5,6,7,8-tetrahydro[1]benzothieno[2,3-d]pyrimidin-2,4(1H,3H)-dion] | 68 | 55 | 42 | –
9 | O=c1[nH]c2sc(-c3ccccc3)cc2c(=O)n1CC(S)CS (racemic) [Beispiel 11, (R,S)-3-(2,3-Dimercaptopropyl)-6-phenylthieno[2,3-d]pyrimidin-2,4(1H,3H)-dion] | – | – | – | MMP-9 Hemmung (MMP-9; bei 1 µM): 15% Hemmung bei 1 µM; MMP-3 Hemmung [1, 3]: Keine Hemmung; MT1-MMP Hemmung [2, 3]: Keine Hemmung
